# Measured values: US5431922A (Bristol-Myers Squibb Company, priority 1993, dated 1995)
# Assays:
# rat = assay: Rat forced swim test (antidepressant screening); format: in vivo
# [1] = tested on: patients undergoing diazepam-withdrawal; conditions: human, in vivo; cited from earlier work
# [2] = in vivo, cited from earlier work
# [3] = pharmacologic testing; cited from earlier work
# [4] = tested on: diazepam-withdrawn animals; conditions: cited from earlier work
# [5] = Johansson et al. 1971; cited from earlier work
structure (smiles),measurement,setting,value
"O=C1CC2(CCCC2)CC(=O)N1CCCCN1CCN(c2ncccn2)CC1 [Buspirone, 8-[4-[4-(2-pyrimidinyl)1-piperazinyl]butyl]-8-azaspiro(4,5)-decane-7,9-dione]",activity in rat forced swim test,rat; given intracerebrally,active
same,activity in rat forced swim test,rat; given systemically,inactive
same,treatment of patients undergoing diazepam-withdrawal,[1],failed to adequately treat patients undergoing diazepam-withdrawal
same,biological half-life,[2]; human,2-11 hours
"c1cnc(N2CCNCC2)nc1 [Example 1-PP, 1-(2-pyrimidinyl)piperazine]",blockade of activity of intracerebral buspirone in forced swim test,rat; systemic administration of 1-PP,blocked
same,anxiolytic potency relative to buspirone,[3],20-25%
same,effect on social interaction,[4]; diazepam-naive subjects,had not shown any effect
same,effect in social interaction paradigm,[4]; diazepam-withdrawn animals,anxiogenic effect
same,elimination (in words),[2],much slower elimination
C=CCc1ccccc1OCC(O)CNC(C)C (stereo not shown) [alprenolol],metabolism in controlled/extended release form vs conventional tablets (in words),[5],more complete when it was administered in a controlled/extended release form than in conventional tablets
